Structures can show the parent of a compound that is named as a salt. Where two headings read alike, the source gives them in different places. Some results are limits rather than exact numbers.

The IC50 is the concentration that inhibits the measured activity by half.

The subject of this experiment is eIF4E Ser209 phosphorylation in Hela cells. Put plainly: MNK cell-based assay (AlphaScreen SureFire, eIF4E Ser209 phosphorylation). Particulars: Homo sapiens, read-out: IC50 Hela. An excerpt:
It has been reported that Ser209 of eIF4E is solely phosphorylated by the MNK enzymes. The ability of compounds to inhibit this process in Hela cells was investigated using the AlphaScreen SureFire® assay platform from Perkin Elmer (Waltham, Mass.). eIF4E phosphorylated on Ser209 is recognized by two antibodies, the first which is fused to a streptavidin coated donor bead binds to an epitope away from Ser209, the second which is fused to a protein A conjugated acceptor bead binds to phosphorylated Ser209. The phosphorylation of eIF4E on Ser209 brings the two antibodies into close proximity and when excited by a laser a singlet oxygen is released by the donor bead which excites the acceptor bead resulting in the emission of light. This enables the monitoring of eIF4E Ser209 phosphorylation and its inhibition in a cellular context.
Hela cells were seeded into microtitre plates (30,000 cells per well) in 100 μl of culture medium and incubated at 37° C. for 24 hours. The media was then removed by aspiration and the cells resuspended in 50 μl of serum free medium containing the test compound and incubated at 37° C. for 2 hours. The culture medium was again removed by aspiration and the cells resuspended in lysis buffer (provided in Perkin Elmer SureFire® Assay Kit). After agitation at 350 rpm for 20 minutes at 22° C., 4 μl was transferred to a 384 well OptiPlate™ (Perkin Elmer, Waltham, Mass.). To each well was added 5 μl of acceptor mix; the plate was sealed and agitated gently at 22° C. for 2 hours. Then, in subdued light, 2 μl of donor mix was added to each well, the plate was sealed, wrapped in aluminum foil and agitated gently at 22° C. for 2 hours. Emission was measured using the EnVision® plate reader (Perkin Elmer, Waltham, Mass.).
Inhibition constants (IC50) were determined by plotting AlphaScreen signal versus log compound concentration and fitting with a non-linear regression algorithm using GraphPad Prism (GraphPad Software Inc.).
In general terms: Alpha assays give light when donor and acceptor beads are brought close together.

[1] abbreviates: eIF4E Ser209 phosphorylation, Hela cells, 2 hours.

As to `CC1(C)CCN(C(=O)c2ccc(-c3cn4c(-c5ccc(C(N)=O)cc5)cnc4cn3)cc2)CC1` [Example 3, 4-(6-(4-(4,4-dimethylpiperidine-1-carbonyl)phenyl)imidazo[1,2-a]pyrazin-3-yl)benzamide], the IC50 under setting [1] was less than 1000 nM. Still for that read-out and setting: the value for `NC(=O)c1ccc(-c2cnc3cnc(-c4ccc(C(=O)N5CCC(N)CC5)cc4)cn23)cc1` [Example 4, 4-(6-(4-(4-aminopiperidine-1-carbonyl)phenyl)imidazo[1,2-a]pyrazin-3-yl) benzamide hydrochloride] was less than 1000 nM; that for `CC(C)(C)N1CCN(C(=O)c2ccc(-c3cn4c(-c5ccc(C(N)=O)cc5)cnc4cn3)cc2)CC1` [Example 5, 4-(6-(4-(4-tert-butylpiperazine-1-carbonyl)phenyl)imidazo [1,2-a]pyrazin-3-yl)benzamide] was less than 1000 nM; that for `N#Cc1ccc(-c2cnc3cnc(-c4ccc(C(=O)N5CCOCC5)cc4)cn23)cc1` [Example 7, 4-(6-(4-(morpholine-4-carbonyl)phenyl)imidazo[1,2-a]pyrazin-3-yl)benzonitrile] was less than 1000 nM. The same measure, in the same setting: the value for `CNC1CCN(C(=O)c2ccc(-c3cn4c(-c5ccc(C#N)cc5)cnc4cn3)cc2)CC1` [Example 9, 4-(6-(4-(4-(methylamino)piperidine-1-carbonyl)phenyl)imidazo[1,2-a]pyrazin-3-yl)benzonitrile] was less than 1000 nM. Regarding `N#Cc1ccc(-c2cnc3cnc(-c4ccc(C(=O)N5CCN(C6CC6)CC5)cc4)cn23)cc1` [Example 14, 4-(6-(4-(4-cyclopropylpiperazine-1-carbonyl)phenyl)imidazo[1,2-a]pyrazin-3-yl)benzonitrile], the half-inhibitory concentration (IC50) under setting [1] is less than 1000 nM.

For the compound `N#Cc1ccc(-c2cnc3cnc(-c4ccc(C(=O)N5CCC(O)CC5)cc4)cn23)cc1` [Example 15, 4-(6-(4-(4-hydroxypiperidine-1-carbonyl)phenyl)imidazo [1,2-a]pyrazin-3-yl)benzonitrile], the IC50 under setting [1] was less than 1000 nM.

Take `CN1CCCN(C(=O)c2ccc(-c3cn4c(-c5ccc(C#N)cc5)cnc4cn3)cc2)CC1` [Example 17, 4-(6-(4-(4-methyl-1,4-diazepane-1-carbonyl)phenyl)imidazo [1,2-a]pyrazin-3-yl)benzonitrile]: the IC50 under setting [1] was less than 1000 nM. On the same count and under the same terms, for `CN(C)C1CCN(C(=O)c2ccc(-c3cn4c(-c5ccc(C#N)cc5)cnc4cn3)cc2)CC1` [Example 21, 4-(6-(4-(4-(dimethylamino)piperidine-1-carbonyl)phenyl)imidazo [1,2-a]pyrazin-3-yl)benzonitrile] the value was less than 1000 nM; for `CC1(N)CCN(C(=O)c2ccc(-c3cn4c(-c5ccc(C#N)cc5)cnc4cn3)cc2)CC1` [Example 23, 4-(6-(4-(4-amino-4-methylpiperidine-1-carbonyl)phenyl)imidazo[1,2-a]pyrazin-3-yl)benzonitrile hydrochloride salt], less than 1000 nM; for `N#Cc1ccc(-c2cnc3cnc(-c4ccc(C(=O)N5CCC6(CC5)COC6)cc4)cn23)cc1` [Example 24, 4-(6-(4-(2-oxa-7-azaspiro[3.5]nonane-7-carbonyl)phenyl)imidazo[1,2-a]pyrazin-3-yl)benzonitrile], less than 1000 nM. On the same count and under the same terms, for `CC(C)(C)N1CCN(C(=O)c2ccc(-c3cn4c(-c5ccc(C#N)cc5)cnc4cn3)cc2)CC1` [Example 26, 4-(6-(4-(4-tert-butylpiperazine-1-carbonyl)phenyl)imidazo[1,2-a]pyrazin-3-yl)benzonitrile] the value was less than 1000 nM; for `Cc1cc(-c2cn3c(-c4ccc(C#N)cc4)cnc3cn2)ccc1C(=O)N1CCC(C)(N)CC1` [Example 28, 4-(6-(4-(4-amino-4-methylpiperidine-1-carbonyl)-3-methylphenyl)imidazo [1,2-a]pyrazin-3-yl)benzonitrile], less than 1000 nM.

`N#Cc1ccc(-c2cnc3cnc(-c4ccc(C(=O)N5CCC(N)CC5)c(F)c4)cn23)cc1` [Example 29, 4-(6-(4-(4-aminopiperidine-1-carbonyl)-3-fluorophenyl)imidazo[1,2-a]pyrazin-3-yl)benzonitrile]: the IC50 under setting [1] was less than 1000 nM. Still for that read-out and setting: the value for `CC1(N)CCN(C(=O)c2ccc(-c3cn4c(-c5ccc(C#N)cc5)cnc4cn3)cc2F)CC1` [Example 30, 4-(6-(4-(4-amino-4-methylpiperidine-1-carbonyl)-3-fluorophenyl)imidazo[1,2-a]pyrazin-3-yl)benzonitrile] was less than 1000 nM; that for `N#Cc1ccc(-c2cnc3cnc(-c4ccc(C(=O)N5CCC(N)CC5)c(Cl)c4)cn23)cc1` [Example 31, 4-(6-(4-(4-aminopiperidine-1-carbonyl)-3-chlorophenyl)imidazo[1,2-a]pyrazin-3-yl)benzonitrile] was less than 1000 nM. Still for that read-out and setting: for `CC1(N)CCN(C(=O)c2ccc(-c3cn4c(-c5ccc(C#N)cc5)cnc4cn3)cc2Cl)CC1` [Example 32, 4-(6-(4-(4-amino-4-methylpiperidine-1-carbonyl)-3-chlorophenyl)imidazo[1,2-a]pyrazin-3-yl)benzonitrile] the value was less than 1000 nM; for `CN1CCN(C(=O)c2ccc(-c3cn4c(-c5ccc(C#N)cc5)cnc4cn3)c(O)c2)CC1` [Example 38, 4-(6-(2-hydroxy-4-(4-methylpiperazine-1-carbonyl)phenyl)imidazo [1,2-a]pyrazin-3-yl)benzonitrile], less than 1000 nM; for `COc1cc(-c2cn3c(-c4ccc(C#N)cc4)cnc3cn2)ccc1C(=O)N1CCN(C)CC1` [Example 39, 4-(6-(3-methoxy-4-(4-methylpiperazine-1-carbonyl)phenyl)imidazo[1,2-a]pyrazin-3-yl)benzonitrile], less than 1000 nM. Same read-out and setting: the value for `CN1CCN(C(=O)c2ccc(-c3cn4c(-c5ccc(Cl)cc5)cnc4cn3)cc2)CC1` [Example 41, (4-(3-(4-chlorophenyl)imidazo [1,2-a]pyrazin-6-yl)phenyl)(4-methylpiperazin-1-yl)methanone] was less than 1000 nM; that for `NC(=O)c1ccc(-c2cn3c(-c4ccc(Cl)cc4)cnc3cn2)cc1` [Example 42, 4-(3-(4-chlorophenyl)imidazo[1,2-a]pyrazin-6-yl)benzamide] was less than 1000 nM. Take `O=C1CCN(C(=O)c2ccc(-c3cn4c(-c5ccc(Cl)cc5)cnc4cn3)cc2)CC1` [Example 43, 1-(4-(3-(4-chlorophenyl)imidazo[1,2-a]pyrazin-6-yl)benzoyl)piperidin-4-one]: the IC50 (HeLa, 2 h) was less than 1000 nM. Turning to `CCN1CCN(C(=O)c2ccc(-c3cn4c(-c5ccc(Cl)cc5)cnc4cn3)cc2)CC1` [Example 45, (4-(3-(4-chlorophenyl)imidazo [1,2-a]pyrazin-6-yl)phenyl)(4-ethylpiperazin-1-yl)methanone], the IC50 under setting [1] is less than 1000 nM. The same measure, in the same setting: the value for `O=C(c1ccc(-c2cn3c(-c4ccc(Cl)cc4)cnc3cn2)cc1)N1CCNCC1` [Example 46, (4-(3-(4-chlorophenyl)imidazo[1,2-a]pyrazin-6-yl)phenyl)(piperazin-1-yl)methanone 2,2,2-trifluoroacetate salt] was less than 1000 nM; that for `O=C(c1ccc(-c2cn3c(-c4ccc(Cl)cc4)cnc3cn2)cc1)N1CCC(NC(=O)C(F)(F)F)CC1` [Example 48, N-(1-(4-(3-(4-chlorophenyl)imidazo [1,2-a]pyrazin-6-yl)benzoyl)piperidin-4-yl)-2,2,2-trifluoroacetamide] was less than 1000 nM.

Take `N#Cc1ccc(-c2cnc3ccc(-c4ccc(C(=O)N5CCC(O)CC5)cc4)nn23)cc1` [Example 55, 4-(6-(4-(4-hydroxypiperidine-1-carbonyl)phenyl)imidazo [1,2-b]pyridazin-3-yl)benzonitrile]: under setting [1], the IC50 is less than 1000 nM.

In the case of `N#Cc1ccc(-c2cnc3ccc(-c4ccc(C(=O)N5CCC(N)CC5)cc4)nn23)cc1` [Example 56, 4-(6-(4-(4-aminopiperidine-1-carbonyl)phenyl)imidazo[1,2-b]pyridazin-3-yl)benzonitrile], the IC50 under setting [1] is less than 1000 nM. Take `CC(=O)NC1CCN(C(=O)c2ccc(-c3ccc4ncc(-c5ccc(C#N)cc5)n4n3)cc2)CC1` [Example 57, N-(1-(4-(3-(4-cyanophenyl)imidazo[1,2-b]pyridazin-6-yl)benzoyl)piperidin-4-yl)acetamide]: the IC50 under setting [1] was less than 1000 nM. For the compound `CC1(N)CCN(C(=O)c2ccc(-c3ccc4ncc(-c5ccc(C#N)cc5)n4n3)cc2)CC1` [Example 58, 4-(6-(4-(4-amino-4-methylpiperidine-1-carbonyl)phenyl)imidazo[1,2-b]pyridazin-3-yl)benzonitrile], the IC50 under setting [1] was less than 1000 nM. For the compound `CC(C)N1CCN(C(=O)c2ccc(-c3ccc4ncc(-c5ccc(C#N)cc5)n4n3)cc2)CC1` [Example 59, 4-(6-(4-(4-isopropylpiperazine-1-carbonyl)phenyl)imidazo [1,2-b]pyridazin-3-yl)benzonitrile], the 50% inhibitory concentration (IC50) under setting [1] was less than 1000 nM.

Turning to `CNC1CCN(C(=O)c2ccc(-c3ccc4ncc(-c5ccc(C#N)cc5)n4n3)cc2)CC1` [Example 60, 4-(6-(4-(4-(methylamino)piperidine-1-carbonyl)phenyl)imidazo[1,2-b]pyridazin-3-yl)benzonitrile], the IC50 under setting [1] is less than 1000 nM.
